Tests used:
Settings in all cases: human
Hepatotoxicity [1] = assay: FDA HLAED, lactate dehydrogenase (LDH) increase
Hepatotoxicity [2] = assay: FDA HLAED, serum glutamic pyruvic transaminase (SGPT) increase
Hepatotoxicity [3] = assay: FDA HLAED, serum glutamic oxaloacetic transaminase (SGOT) increase
Hepatotoxicity [4] = assay: FDA HLAED, alkaline phosphatase increase
Hepatotoxicity [5] = assay: FDA HLAED, liver enzyme composite activity
Hepatotoxicity [6] = assay: FDA HLAED, gamma-glutamyl transferase (GGT) increase
For GGT Increase - Index Value in this document: reference of the scale not given here.
For LDH Increase - Index Value in this document: reference of the scale not given here.

## Oc1ccc2c(c1)[C@@]13CCCC[C@@]1(O)[C@@H](C2)N(CC1CCC1)CC3 [BUTORPHANOL]
Hepatotoxicity [1]
  LDH Increase - Activity Score: Inactive
  LDH Increase - Index Value: 0
  LDH Increase - Number of Reports: < 4
Hepatotoxicity [2]
  SGPT Increase - Activity Score: Inactive
  SGPT Increase - Index Value: 0
  SGPT Increase - Number of Reports: < 4
Hepatotoxicity [3]
  SGOT Increase - Activity Score: Inactive
  SGOT Increase - Index Value: 0
  SGOT Increase - Number of Reports: < 4
Hepatotoxicity [4]
  Alkaline Phosphatase Increase - Activity Score: Inactive
  Alkaline Phosphatase Increase - Index Value: 0
  Alkaline Phosphatase Increase - Number of Reports: < 4
Hepatotoxicity [5]
  Composite Activity - Active: 0
  Composite Activity - Marginal: 0
  Composite Activity - Score: Inactive
Hepatotoxicity [6]
  GGT Increase - Activity Score: Inactive
  GGT Increase - Index Value: 0
  GGT Increase - Number of Reports: < 4

## C=CCN1C[C@H](C(=O)N(CCCN(C)C)C(=O)NCC)C[C@@H]2c3cccc4[nH]cc(c34)C[C@H]21 [CABERGOLINE]
Hepatotoxicity [1]
  LDH Increase - Activity Score: Inactive
  LDH Increase - Index Value: 0
  LDH Increase - Number of Reports: < 4
Hepatotoxicity [2]
  SGPT Increase - Activity Score: Inactive
  SGPT Increase - Index Value: 0
  SGPT Increase - Number of Reports: < 4
Hepatotoxicity [3]
  SGOT Increase - Activity Score: Inactive
  SGOT Increase - Index Value: 0
  SGOT Increase - Number of Reports: < 4
Hepatotoxicity [4]
  Alkaline Phosphatase Increase - Activity Score: Inactive
  Alkaline Phosphatase Increase - Index Value: 0
  Alkaline Phosphatase Increase - Number of Reports: < 4
Hepatotoxicity [5]
  Composite Activity - Active: 0
  Composite Activity - Marginal: 0
  Composite Activity - Score: Inactive
Hepatotoxicity [6]
  GGT Increase - Activity Score: Inactive
  GGT Increase - Index Value: 0
  GGT Increase - Number of Reports: < 4

## C=C1/C(=C\C=C2/CCC[C@]3(C)[C@@H]([C@H](C)/C=C/[C@@H](O)C4CC4)CC[C@@H]23)C[C@@H](O)C[C@@H]1O [CALCIPOTRIENE]
Hepatotoxicity [1]
  LDH Increase - Activity Score: Inactive
  LDH Increase - Index Value: 0
  LDH Increase - Number of Reports: < 4
Hepatotoxicity [2]
  SGPT Increase - Activity Score: Inactive
  SGPT Increase - Index Value: 0
  SGPT Increase - Number of Reports: < 4
Hepatotoxicity [3]
  SGOT Increase - Activity Score: Inactive
  SGOT Increase - Index Value: 0.3
  SGOT Increase - Number of Reports: < 4
Hepatotoxicity [4]
  Alkaline Phosphatase Increase - Activity Score: Inactive
  Alkaline Phosphatase Increase - Index Value: 0
  Alkaline Phosphatase Increase - Number of Reports: < 4
Hepatotoxicity [5]
  Composite Activity - Active: 0
  Composite Activity - Marginal: 0
  Composite Activity - Score: Inactive
Hepatotoxicity [6]
  GGT Increase - Activity Score: Inactive
  GGT Increase - Index Value: 0
  GGT Increase - Number of Reports: < 4

## C=C1/C(=C\C=C2/CCC[C@]3(C)[C@@H]([C@H](C)CCCC(C)(C)O)CC[C@@H]23)C[C@@H](O)C[C@@H]1O [CALCITRIOL]
Hepatotoxicity [1]
  LDH Increase - Activity Score: Inactive
  LDH Increase - Index Value: 0
  LDH Increase - Number of Reports: < 4
Hepatotoxicity [2]
  SGPT Increase - Activity Score: Inactive
  SGPT Increase - Index Value: 0
  SGPT Increase - Number of Reports: < 4
Hepatotoxicity [3]
  SGOT Increase - Activity Score: Inactive
  SGOT Increase - Index Value: 0
  SGOT Increase - Number of Reports: < 4
Hepatotoxicity [4]
  Alkaline Phosphatase Increase - Activity Score: Inactive
  Alkaline Phosphatase Increase - Index Value: 0
  Alkaline Phosphatase Increase - Number of Reports: < 4
Hepatotoxicity [5]
  Composite Activity - Active: 0
  Composite Activity - Marginal: 0
  Composite Activity - Score: Inactive
Hepatotoxicity [6]
  GGT Increase - Activity Score: Inactive
  GGT Increase - Index Value: 0
  GGT Increase - Number of Reports: < 4

## C[C@H](CS)C(=O)N1CCC[C@H]1C(=O)O [CAPTOPRIL]
Hepatotoxicity [1]
  LDH Increase - Activity Score: Inactive
  LDH Increase - Index Value: 0.4
  LDH Increase - Number of Reports: < 4
Hepatotoxicity [2]
  SGPT Increase - Activity Score: Inactive
  SGPT Increase - Index Value: 0.7
  SGPT Increase - Number of Reports: >= 4
Hepatotoxicity [3]
  SGOT Increase - Activity Score: Inactive
  SGOT Increase - Index Value: 1.5
  SGOT Increase - Number of Reports: >= 4
Hepatotoxicity [4]
  Alkaline Phosphatase Increase - Activity Score: Inactive
  Alkaline Phosphatase Increase - Index Value: 1.1
  Alkaline Phosphatase Increase - Number of Reports: >= 4
Hepatotoxicity [5]
  Composite Activity - Active: 0
  Composite Activity - Marginal: 0
  Composite Activity - Score: Inactive
Hepatotoxicity [6]
  GGT Increase - Activity Score: Inactive
  GGT Increase - Index Value: 0
  GGT Increase - Number of Reports: < 4

## CC(C)(C)NCC(O)COc1cccc2c1CCC(=O)N2 (stereo not drawn) [CARTEOLOL]
Hepatotoxicity [1]
  LDH Increase - Activity Score: Inactive
  LDH Increase - Index Value: 0.5
  LDH Increase - Number of Reports: < 4
Hepatotoxicity [2]
  SGPT Increase - Activity Score: Inactive
  SGPT Increase - Index Value: 0.5
  SGPT Increase - Number of Reports: < 4
Hepatotoxicity [3]
  SGOT Increase - Activity Score: Inactive
  SGOT Increase - Index Value: 0.5
  SGOT Increase - Number of Reports: < 4
Hepatotoxicity [4]
  Alkaline Phosphatase Increase - Activity Score: Inactive
  Alkaline Phosphatase Increase - Index Value: 0
  Alkaline Phosphatase Increase - Number of Reports: < 4
Hepatotoxicity [5]
  Composite Activity - Active: 0
  Composite Activity - Marginal: 0
  Composite Activity - Score: Inactive
Hepatotoxicity [6]
  GGT Increase - Activity Score: Inactive
  GGT Increase - Index Value: 0
  GGT Increase - Number of Reports: < 4

Source: ChEMBL document CHEMBL1697781, “Assessment of the health effects of chemicals in humans: II. Construction of an adverse effects database for QSAR modeling” (Curr Drug Discov Technol, 2004)
